Test results reported in doi:10.1101/2021.09.30.462449v1 (biorxiv, 2021).

Tests used:
Experiment in all cases: biochemical
Settings in all cases: read-out: % inhibition mean (Z'Lyte)
[1] = target: PLK2 (Homo sapiens, UniProt Q9NYY3)
[2] = target: FLT3 (Homo sapiens, UniProt P36888)
[3] = target: EPHA1 (Homo sapiens, UniProt P21709)
[4] = target: BMX (Homo sapiens, UniProt P51813)
[5] = target: AKT2 (PKB beta) (Homo sapiens, UniProt P31751)
[6] = target: PLK1 (Homo sapiens, UniProt P53350)
[7] = target: SRC N1 (Homo sapiens, UniProt P12931)
[8] = target: TNK1 (Homo sapiens, UniProt Q13470)
Chain of TNK1 (Q13470 whole entry): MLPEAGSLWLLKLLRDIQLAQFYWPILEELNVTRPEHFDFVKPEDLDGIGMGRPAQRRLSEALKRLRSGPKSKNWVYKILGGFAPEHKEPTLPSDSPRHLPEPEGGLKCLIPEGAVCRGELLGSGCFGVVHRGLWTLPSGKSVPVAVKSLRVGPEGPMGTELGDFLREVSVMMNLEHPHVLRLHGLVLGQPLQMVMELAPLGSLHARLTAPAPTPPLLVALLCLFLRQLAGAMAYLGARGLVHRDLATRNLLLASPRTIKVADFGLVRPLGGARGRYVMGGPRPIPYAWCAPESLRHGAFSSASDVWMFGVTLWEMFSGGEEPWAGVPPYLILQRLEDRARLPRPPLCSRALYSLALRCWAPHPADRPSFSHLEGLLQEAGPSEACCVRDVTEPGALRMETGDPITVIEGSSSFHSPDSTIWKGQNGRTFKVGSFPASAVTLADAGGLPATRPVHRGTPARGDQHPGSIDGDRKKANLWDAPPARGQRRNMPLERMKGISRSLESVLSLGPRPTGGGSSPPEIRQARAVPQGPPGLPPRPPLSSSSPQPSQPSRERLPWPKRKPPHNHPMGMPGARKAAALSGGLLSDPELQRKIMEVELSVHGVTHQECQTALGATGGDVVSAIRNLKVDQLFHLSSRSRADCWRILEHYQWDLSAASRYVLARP

[9] = target: EGFR (ErbB1) C797S (Homo sapiens, UniProt P00533, C797S)
[10] = target: CAMK2D (CaMKII delta) (Homo sapiens, UniProt Q13557)
[11] = target: KIT V559D V654A (Homo sapiens, UniProt P10721, V559D/V654A)
[12] = target: TYK2 (Homo sapiens, UniProt P29597)
[13] = target: FGFR1 (Homo sapiens, UniProt P11362)
Chain of FGFR1 (P11362 whole entry): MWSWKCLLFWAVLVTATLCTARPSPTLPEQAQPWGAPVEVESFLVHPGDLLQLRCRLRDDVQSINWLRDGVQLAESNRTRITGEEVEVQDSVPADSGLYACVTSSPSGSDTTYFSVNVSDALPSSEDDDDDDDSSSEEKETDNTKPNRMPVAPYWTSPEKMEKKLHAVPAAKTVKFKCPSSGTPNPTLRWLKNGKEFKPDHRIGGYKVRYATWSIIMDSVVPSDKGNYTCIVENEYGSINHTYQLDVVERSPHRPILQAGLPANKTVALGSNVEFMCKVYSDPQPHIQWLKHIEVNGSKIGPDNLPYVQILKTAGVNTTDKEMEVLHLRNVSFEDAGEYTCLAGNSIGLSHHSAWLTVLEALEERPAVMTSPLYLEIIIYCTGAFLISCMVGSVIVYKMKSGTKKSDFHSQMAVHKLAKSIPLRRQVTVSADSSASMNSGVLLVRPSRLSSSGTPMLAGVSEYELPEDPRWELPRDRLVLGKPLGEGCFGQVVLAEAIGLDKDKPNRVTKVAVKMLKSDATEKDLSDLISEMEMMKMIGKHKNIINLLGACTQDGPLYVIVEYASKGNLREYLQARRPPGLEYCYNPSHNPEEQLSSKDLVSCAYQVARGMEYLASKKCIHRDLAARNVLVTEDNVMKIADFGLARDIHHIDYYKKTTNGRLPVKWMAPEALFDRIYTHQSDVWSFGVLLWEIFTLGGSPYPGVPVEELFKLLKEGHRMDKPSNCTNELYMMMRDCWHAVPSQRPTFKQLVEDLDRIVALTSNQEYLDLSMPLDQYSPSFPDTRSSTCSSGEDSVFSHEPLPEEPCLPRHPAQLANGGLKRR

[14] = target: NIM1K (Homo sapiens, UniProt Q8IY84)
[15] = target: PLK3 (Homo sapiens, UniProt Q9H4B4)
Chain of PLK3 (Q9H4B4 whole entry): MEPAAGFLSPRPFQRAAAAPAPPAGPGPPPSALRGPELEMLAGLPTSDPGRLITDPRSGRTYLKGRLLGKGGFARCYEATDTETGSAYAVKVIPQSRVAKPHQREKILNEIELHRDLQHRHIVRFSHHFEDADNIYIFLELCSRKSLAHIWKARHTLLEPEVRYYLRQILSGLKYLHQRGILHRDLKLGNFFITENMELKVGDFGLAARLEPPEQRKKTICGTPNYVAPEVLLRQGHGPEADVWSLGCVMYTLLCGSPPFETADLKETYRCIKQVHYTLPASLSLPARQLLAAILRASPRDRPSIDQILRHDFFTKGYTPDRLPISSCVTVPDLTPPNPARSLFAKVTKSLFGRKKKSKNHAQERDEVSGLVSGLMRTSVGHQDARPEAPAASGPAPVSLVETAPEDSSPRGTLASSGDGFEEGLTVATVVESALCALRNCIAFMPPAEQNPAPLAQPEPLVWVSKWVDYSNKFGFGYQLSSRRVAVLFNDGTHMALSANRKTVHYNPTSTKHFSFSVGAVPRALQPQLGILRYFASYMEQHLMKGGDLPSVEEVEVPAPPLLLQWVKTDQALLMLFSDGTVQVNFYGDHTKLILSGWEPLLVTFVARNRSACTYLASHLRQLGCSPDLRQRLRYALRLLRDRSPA

[16] = target: PAK1 (Homo sapiens, UniProt Q13153)
Chain of PAK1 (Q13153 whole entry): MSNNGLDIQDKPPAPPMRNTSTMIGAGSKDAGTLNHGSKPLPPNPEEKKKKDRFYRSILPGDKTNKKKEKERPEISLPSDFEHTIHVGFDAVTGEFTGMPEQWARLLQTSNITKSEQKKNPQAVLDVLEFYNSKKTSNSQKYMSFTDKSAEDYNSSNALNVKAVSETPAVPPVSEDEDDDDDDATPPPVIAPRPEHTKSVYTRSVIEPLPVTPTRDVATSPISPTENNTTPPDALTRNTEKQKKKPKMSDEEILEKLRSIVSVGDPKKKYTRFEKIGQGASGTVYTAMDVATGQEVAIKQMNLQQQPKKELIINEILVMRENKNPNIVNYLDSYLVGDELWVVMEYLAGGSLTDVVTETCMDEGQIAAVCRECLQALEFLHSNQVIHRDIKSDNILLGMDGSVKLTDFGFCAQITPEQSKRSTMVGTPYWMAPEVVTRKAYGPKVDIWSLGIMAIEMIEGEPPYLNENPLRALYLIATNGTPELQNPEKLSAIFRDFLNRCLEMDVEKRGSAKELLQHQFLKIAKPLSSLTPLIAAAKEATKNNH

[17] = target: NEK6 (Homo sapiens, UniProt Q9HC98)
[18] = target: MAPKAPK2 (Homo sapiens, UniProt P49137)
[19] = target: MARK4 (Homo sapiens, UniProt Q96L34)
Chain of MARK4 (Q96L34 whole entry): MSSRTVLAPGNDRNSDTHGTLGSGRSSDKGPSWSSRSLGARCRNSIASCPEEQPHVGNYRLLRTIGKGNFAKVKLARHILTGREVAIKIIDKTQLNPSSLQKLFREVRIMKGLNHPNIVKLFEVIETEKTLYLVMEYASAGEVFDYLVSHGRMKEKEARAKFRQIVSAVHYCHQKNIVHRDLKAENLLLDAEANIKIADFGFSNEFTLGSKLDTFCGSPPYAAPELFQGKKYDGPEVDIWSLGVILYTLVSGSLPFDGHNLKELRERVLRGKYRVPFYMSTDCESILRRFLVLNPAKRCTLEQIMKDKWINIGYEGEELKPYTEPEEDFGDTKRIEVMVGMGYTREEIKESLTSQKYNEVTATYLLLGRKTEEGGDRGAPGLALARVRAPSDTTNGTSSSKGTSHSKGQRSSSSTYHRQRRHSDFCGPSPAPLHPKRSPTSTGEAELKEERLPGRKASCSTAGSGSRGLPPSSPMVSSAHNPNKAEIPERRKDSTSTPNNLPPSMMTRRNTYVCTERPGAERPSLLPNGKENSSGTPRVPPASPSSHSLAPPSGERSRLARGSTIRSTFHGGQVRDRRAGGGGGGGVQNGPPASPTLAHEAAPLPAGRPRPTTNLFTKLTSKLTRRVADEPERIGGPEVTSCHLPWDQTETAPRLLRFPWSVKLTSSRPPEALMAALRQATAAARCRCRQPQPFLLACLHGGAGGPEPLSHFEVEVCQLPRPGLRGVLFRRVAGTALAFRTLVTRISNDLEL

[20] = target: PDGFRA V561D (Homo sapiens, UniProt P16234, V561D)
[21] = target: CSNK2A1 (CK2 alpha 1) (Homo sapiens, UniProt P68400)
[22] = target: JAK2 (Homo sapiens, UniProt O60674)
[23] = target: PRKG2 (PKG2) (Homo sapiens, UniProt Q13237)
[24] = target: CDK5/p25 (Homo sapiens, UniProt Q00535)
[25] = target: HIPK3 (YAK1) (Homo sapiens, UniProt Q9H422)
[26] = target: IGF1R (Homo sapiens, UniProt P08069)
Chain of IGF1R (P08069 whole entry): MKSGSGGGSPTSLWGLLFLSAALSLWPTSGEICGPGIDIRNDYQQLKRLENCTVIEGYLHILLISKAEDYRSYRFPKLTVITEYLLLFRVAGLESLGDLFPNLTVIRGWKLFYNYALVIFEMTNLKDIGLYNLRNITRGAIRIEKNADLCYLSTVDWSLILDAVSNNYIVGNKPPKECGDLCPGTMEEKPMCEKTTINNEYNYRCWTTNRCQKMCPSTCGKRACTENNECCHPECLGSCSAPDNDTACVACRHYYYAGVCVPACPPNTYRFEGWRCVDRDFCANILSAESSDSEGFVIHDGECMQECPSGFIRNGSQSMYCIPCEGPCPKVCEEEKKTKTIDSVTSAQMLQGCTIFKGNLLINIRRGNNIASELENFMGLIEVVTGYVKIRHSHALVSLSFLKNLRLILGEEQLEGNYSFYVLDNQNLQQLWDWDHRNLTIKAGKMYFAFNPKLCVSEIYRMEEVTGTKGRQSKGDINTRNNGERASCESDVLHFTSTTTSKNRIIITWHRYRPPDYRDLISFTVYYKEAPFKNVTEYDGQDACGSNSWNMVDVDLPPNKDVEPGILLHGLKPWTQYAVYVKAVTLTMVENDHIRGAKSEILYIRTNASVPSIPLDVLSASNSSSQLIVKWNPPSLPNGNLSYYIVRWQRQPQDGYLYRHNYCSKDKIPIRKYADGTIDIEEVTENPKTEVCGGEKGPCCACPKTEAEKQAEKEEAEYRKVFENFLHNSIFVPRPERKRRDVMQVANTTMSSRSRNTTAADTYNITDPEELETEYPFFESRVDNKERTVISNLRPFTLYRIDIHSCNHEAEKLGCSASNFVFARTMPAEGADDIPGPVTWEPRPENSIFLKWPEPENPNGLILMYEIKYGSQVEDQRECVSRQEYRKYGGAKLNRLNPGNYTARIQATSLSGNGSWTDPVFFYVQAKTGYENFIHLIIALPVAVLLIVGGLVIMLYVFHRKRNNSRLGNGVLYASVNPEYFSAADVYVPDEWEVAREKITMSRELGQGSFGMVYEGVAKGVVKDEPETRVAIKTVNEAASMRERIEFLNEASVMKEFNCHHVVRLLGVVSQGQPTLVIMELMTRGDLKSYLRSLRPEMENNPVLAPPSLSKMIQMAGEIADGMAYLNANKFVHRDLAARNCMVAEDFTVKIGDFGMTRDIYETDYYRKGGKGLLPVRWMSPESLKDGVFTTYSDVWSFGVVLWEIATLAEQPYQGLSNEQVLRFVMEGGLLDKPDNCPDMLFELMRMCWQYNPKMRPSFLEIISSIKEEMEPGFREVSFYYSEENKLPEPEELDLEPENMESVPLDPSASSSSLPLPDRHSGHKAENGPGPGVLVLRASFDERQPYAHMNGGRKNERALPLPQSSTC

[27] = target: PDGFRB (PDGFR beta) (Homo sapiens, UniProt P09619)
[28] = target: BLK (Homo sapiens, UniProt P51451)
[29] = target: DNA-PK (Homo sapiens, UniProt P78527)

Q: For COc1ccc2nc3cc(Cl)ccc3c(Nc3cc(CN4CCCC4)c(O)c(CN4CCCC4)c3)c2n1 [Pyronaridine, 4-[(7-Chloro-2-methoxybenzo[b][1,5]naphthyridin-10-yl)amino]-2,6-bis(1-pyrrolidinylmethyl)phenol phosphate (1:4)], which inhibition at 1 µM [1] is on record?
A: 5%

Q: And the inhibition at 1 µM [2]?
A: 3%

Q: What about the inhibition at 1 µM [3] of the same molecule?
A: 1%

Q: What about the inhibition at 1 µM [4] of the same molecule?
A: 11%

Q: What about the inhibition at 1 µM [5] of the same molecule?
A: 1%

Q: And the inhibition at 1 µM [6]?
A: 6%

Q: And the inhibition at 1 µM [7]?
A: 5%

Q: What about the inhibition at 1 µM [8] of the same molecule?
A: -3%

Q: What about the inhibition at 1 µM [9] of the same molecule?
A: -7%

Q: And the inhibition at 1 µM [10]?
A: -5%

Q: And the inhibition at 1 µM [11]?
A: -1%

Q: And the inhibition at 1 µM [12]?
A: 0%

Q: What about the inhibition at 1 µM [13] of the same molecule?
A: -5%

Q: And the inhibition at 1 µM [14]?
A: -2%

Q: And the inhibition at 1 µM [15]?
A: 28%

Q: What about the inhibition at 1 µM [16] of the same molecule?
A: 6%

Q: What about the inhibition at 1 µM [17] of the same molecule?
A: -3%

Q: And the inhibition at 1 µM [18]?
A: 10%

Q: What about the inhibition at 1 µM [19] of the same molecule?
A: -4%

Q: What about the inhibition at 1 µM [20] of the same molecule?
A: 2%

Q: And the inhibition at 1 µM [21]?
A: 7%

Q: What about the inhibition at 1 µM [22] of the same molecule?
A: 4%

Q: And the inhibition at 1 µM [23]?
A: 1%

Q: What about the inhibition at 1 µM [24] of the same molecule?
A: 0%

Q: What about the inhibition at 1 µM [25] of the same molecule?
A: -2%

Q: And the inhibition at 1 µM [26]?
A: 6%

Q: What about the inhibition at 1 µM [27] of the same molecule?
A: 0%

Q: What about the inhibition at 1 µM [28] of the same molecule?
A: 3%

Q: And the inhibition at 1 µM [29]?
A: 5%
